Test results from patent publication US20180116990A1, “COMPOSITION OF BIOACTIVE LIPIDS AND METHODS OF USE THEREOF” (UND Life Sciences, LLC, priority 2016, published 2018).
Where two headings read alike, the source gives them in different places.

B1: BDNF: brain-derived neurotropic factor (BDNF), a neurotrophin (protein, UniProt P23560 19-247, looked up)
Neurotrophic factor BDNF …: APMKEANIRGQGGLAYPGVRTHGTLESVNGPKAGSRGLTSLADTFEHVIEELLDEDQKVRPNEENNKDADLYTSRVMLSSQVPLEPPLLFLLEEYKNYLDAANMSMRVRRHSDPARRGELSVCDSISEWVTAADKKTAVDMSGGTVTVLEKVPVSKGQLKQYFYETKCNPMGYTKEGCRGIDKRHWNSQCRTTQSYVRALTMDSKKRIGWRFIRIDTSCVCTLTIKRGR

Key:
[1] = system: VEGF-induced angiogenesis; experiment: effect of bioactive lipids on angiogenesis induced by VEGF in vitro (FIG. 10); type: cell-based; details: positive test control taken as 100%
Protocol: C=Control; T=positive test control taken as 100%; RSv=Resolvin E1; PRt=Protectin D1; MaR=Maresin; L+R+P+M=LXA4=resolvin D1+Protectin D1+Maresin in 1:1:1:1 ratio.
(§1) In another study, this was similar to the study given in Examples 5 and 6, except that in this instance different bioactive lipids singly and in combination were tested in combination with or without anti-VEGF antibody. Thus, in this study, experimental animals received LXA4, resolvin E1, resolvin D1, protectin D1, maresin 1 or a combination of LXA4+resolvin E1+protectin D1+maresin 1 (in the ratio of 1:1:1:1)±anti-VEGF antibody were given with appropriate control groups. In this study, dose of bioactive lipids used was 5 ng, 10 ng, 15 ng, 20 ng, 50 ng, 100 ng, 200 ng, 500 ng, 1 μg, 5 μg, or 25.0 μg once in 4 weeks for 3 months. […] A summary of the results obtained with bioactive lipids on angiogenesis (FIG. 10) in vitro; on STZ-induced cytotoxicity to vascular endothelial cells (FIG. 11); on LPS-induced IL-6 and TNF-α secretion by human macrophages in vitro (FIG. 12); on PGE2 and VEGF secretion by LPS stimulated ARPE cells in vitro (FIG. 13); leukocyte migration and adherence to endothelial cells in vitro (FIG. 14); and BDNF secretion by ARPE cells stimulated by LPS (FIG. 15) are given in respective figures.

[2] = system: vascular endothelial cells; experiment: STZ-induced cytotoxic action on vascular endothelial cells in vitro (FIG. 11); type: cell-based; details: STZ cytotoxicity taken as 100%
Protocol: C=Control; STZ=Streptozotocin-induced cytotoxicity taken as positive control taken as 100%; RSv=Resolvin E1; PRt=Protectin D1; MaR=Maresin; L+R+P+M=LXA4=resolvin D1+Protectin D1+Maresin in 1:1:1:1 ratio.
as §1

[3] = system: human macrophage cells; experiment: production of IL-6 and TNF-α by human macrophage cells stimulated with LPS in vitro (FIG. 12); type: cell-based; details: LPS stimulated increase taken as 100%
Protocol: C=Control; LPS stimulated increase in IL-6 and TNF-α production taken as 100%; RSv=Resolvin E1; PRt=Protectin D1; MaR=Maresin; L+R+P+M=LXA4=resolvin D1+Protectin D1+Maresin in 1:1:1:1 ratio.
as §1

[4] = system: adult human retinal pigment epithelial cells, ARPE 19 cells; experiment: production of PGE2 and VEGF by ARPE 19 cells exposed to LPS (FIG. 13); type: cell-based; details: LPS positive control taken as 100%
Protocol: C=Control; LPS=Positive control taken as 100%; RSv=Resolvin E1; PRt=Protectin D1; MaR=Maresin; L+R+P+M=LXA4=resolvin D1+Protectin D1+Maresin in 1:1:1:1 ratio.
as §1

[5] = system: leukocyte migration and adherence; experiment: leukocyte migration and adherence stimulated by LPS in vitro (FIG. 14); type: cell-based; details: LPS positive control taken as 100%
Protocol: C=Control; LPS=positive control taken as 100%; RSv=Resolvin E1; PRt=Protectin D1; MaR=Maresin; L+R+P+M=LXA4=resolvin D1+Protectin D1+Maresin in 1:1:1:1 ratio.
as §1

[6] = system: experimental animals with DR, AMD, DME, retinopathy of prematurity; experiment: intravitreal injection in experimental animals with DR, AMD, DME, retinopathy of prematurity (Examples 5-7, FIG. 16); type: in vivo; details: for regression of DR, AMD, DME, retinopathy of prematurity: all doses
From the text: The degree of DR in control is taken as 100% which received only the vehicle. All bioactive lipids are able to suppress/reverse/arrest DR to a significant degree. […] Similar results were obtained with AMD, DME and retinopathy of prematurity. AVA=Anti-VEGF antibody; LRPM=Lipoxin A4+resolvin+protectin+maresin; AVA+LRPM=Anti-VEGF antibody+Lipoxin A4+resolvin+protectin+maresin.
[…] with DR, AMD, DME, retinopathy of prematurity (each group consisting of 10 animals: total 40 animals) were treated by direct intravitreal injection of LXA4 free acid form of composition according the examples 1-4 in doses ranging from 10.0 μg/day once in a week for 4 weeks.
In another study, this was similar to the study given in Example 5, except that in this instance different bioactive lipids singly and in combination were tested. Thus, in this study, experimental animals received LXA4, resolvin E1, resolvin D1, protectin D1, maresin 1 or a combination of LXA4+resolvin E1+protectin D1+maresin 1 (in the ratio of 1:1:1:1) were given with appropriate control groups. In this study, different doses of bioactive lipids were used either 5 ng, 10 ng, 15 ng, 20 ng, 50 ng, 100 ng, 200 ng, 500 ng, 1 μg, 5 μg or ranging from 10.0 μg to 100.0 μg per week for 4 weeks; once in 4 weeks for 3 months.
as §1

[7] = effect of ethanol and albumin on stability of LXA4 in solution in vitro (Example 8, FIGS. 17-18); type: physicochemical
Protocol: C=Control (100%); Concentration of LXA4 used in the test system is 10 μg to which different concentrations of albumin is added and after a specific period of incubation the concentration of LXA4 present in the solution is tested. It is seen that when the % of albumin exceeded 0.01%, the stability of LXA4 is decreased. […] The test system used: LXA4 is dissolved in 0.01% ethanol (pH 7.4) at 37° C. to which different concentrations of albumin is added and at the end of incubation time the concentration of LXA4 present is tested to know whether albumin would influence the stability of LXA4 in the solution.
Concentration of LXA4 tested 100 ng. […] C=Control (100%) (expected). Various doses of albumin were added to LXA4 solution in saline/PBS/ethanol and the stability of LXA4 was tested at the end of different periods of incubation in days. Results were best when ethanol concentration in the solution is between 0.01 to 0.0001% and albumin concentration is between 0.01 to 0.0001%.
The effect of albumin as an exemplary stabilizing agent in compositions of bioactive lipids was tested as follows: To 250 ng of LXA4 dissolved in a solution of saline/PBS with or without 0.01% ethanol was added different concentrations of albumin and after a specific period of incubation the concentration of LXA4 present in the solution was tested.

[8] = production of other bioactive lipids (observation)
From the text: Thus, one bioactive lipid enhances the production and action of other bioactive lipids. In a surprise observation, inventor noted that LXA4 and other bioactive lipids function as autocrine factors enhancing their own production.

[9] = system: experimental animals with DR, AMD, DME, retinopathy of prematurity; experiment: intravitreal injection in experimental animals with DR, AMD, DME, retinopathy of prematurity (Examples 5-7, FIG. 16); type: in vivo; details: Example 5; 5 ng to 100.0 μg per week for 4 weeks; once in 4 weeks for 3 months; all doses tested
[10] = system: ARPE 19 cells; details: LPS induced ARPE 19 cells, cited from earlier work
[11] = system: adult human retinal pigment epithelial cells, ARPE 19 cells; experiment: production of BDNF by ARPE 19 cells exposed to LPS (FIG. 15); type: cell-based; details: saline control taken as 100%
Protocol: C=Saline control taken as 100%; LPS=LPS-induced decrease in BDNF production; RSv=Resolvin E1; PRt=Protectin D1; MaR=Maresin; L+R+P+M=LXA4=resolvin D1+Protectin D1+Maresin in 1:1:1:1 ratio.
as §1

[12] = system: neovascularization; details: retina; literature; cited from earlier work
[13] = Example 6, lipids singly and in combination, 5 ng to 100.0 μg per week for 4 weeks, once in 4 weeks for 3 months
[14] = Example 7, with or without anti-VEGF antibody, 5 ng to 25.0 μg once in 4 weeks for 3 months

| Molecule | regression of DR, AMD, DME, retinopathy of prematurity [6, 13] | regression of DR, AMD, DME, retinopathy of prematurity [6, 14] | production of BDNF [11] | protection against neovascularization [12] | also measured |
| --- | --- | --- | --- | --- | --- |
| CCCCC[C@H](O)/C=C/C=C\C=C\C=C\[C@@H](O)[C@@H](O)CCCC(=O)O [LXA4, lipoxin A4] | substantial regression | substantial regression |  |  | suppression of VEGF-induced angiogenesis [1]: most effective; cytoprotective action against STZ-induced cytotoxic action [2]: most effective; production of IL-6 and TNF-α [3]: most effective; production of PGE2 and VEGF [4]: most potent; leukocyte migration and adherence [5]: most potent; reduction in the degree of DR, AMD, DME, and retinopathy of prematurity ([6]; Example 5, direct intravitreal injection, 10.0 μg/day once in a week for 4 weeks, all 40 animals): significant reduction; stability of LXA4 ([7]; Example 8, 250 ng LXA4 in saline/PBS, albumin between 0.01 to 0.0001% compared to LXA4 concentration): optimum; stability of LXA4 ([7]; Example 8, ratio LXA4/albumin 0.01% to 0.0001%, in the presence of 0.01% ethanol): more stable; stability of LXA4 ([7]; FIG. 17, albumin between 0.01% to 0.001%, LXA4 10 μg in 0.01% ethanol, pH 7.4, 37° C.): stable and active; stability of LXA4 ([7]; FIG. 17, albumin exceeded 0.01%, LXA4 10 μg in 0.01% ethanol, pH 7.4, 37° C.): decreased; stability of LXA4 at different times ([7]; FIG. 18, LXA4 100 ng in saline/PBS/ethanol, ethanol 0.01 to 0.0001% and albumin 0.01 to 0.0001%, incubation in days): best; production of other bioactive lipids such as resolvins, protectins and maresins [8]: enhanced; regression of DR, AMD, DME, retinopathy of prematurity [9]: substantial regression; IL-6 levels ([10]; 10 nmol/L, p=0.036): decreased |
| CC/C=C\C[C@H](O)\C=C/C=C/C=C/[C@H](O)C/C=C\C/C=C\CCC(=O)O [Protectin D1, protectin D1] | substantial regression | substantial regression | more potent than LXA4 |  |  |
| CC/C=C\C/C=C\C[C@H](O)\C=C/C=C/C=C/[C@H](O)C/C=C\CCC(=O)O [Maresin, maresin 1] | substantial regression | substantial regression | more potent than LXA4 |  |  |
| CC[C@@H](O)/C=C/C=C\C[C@@H](O)/C=C/C=C/C=C\[C@@H](O)CCCC(=O)O [Resolvin E1, resolvin E1] | substantial regression | substantial regression | more potent than LXA4 | protected against neovascularization |  |
| CC/C=C\C[C@H](O)/C=C/C=C\C=C\C=C\[C@@H](O)[C@@H](O)C/C=C\CCC(=O)O [resolvin D1] | substantial regression | substantial regression |  | protected against neovascularization |  |
| CC/C=C\C[C@H](O)\C=C/C=C/C=C/[C@H](O)C/C=C\C/C=C\CCC(=O)O [Neuroprotectin D1, reference compound] |  |  |  | protected against neovascularization |  |
| B1 |  |  |  |  | IL-6 levels ([10]; 500 pg, p=0.0002): decreased |
